Some targets named below: KIT(V559D) (Homo sapiens, UniProt P10721, V559D); CDKL1 (Homo sapiens, UniProt Q00532); NEK4 (Homo sapiens, UniProt P51957).
Holding throughout (experiment): biochemical
What all share (design): DiscoveRx KINOMEscan active site-directed competition binding; percent of control kinase bound to immobilised ligand

A further assay addresses T1, GRK3 (Homo sapiens, UniProt P35626).
T1 sequence (P35626 1-688): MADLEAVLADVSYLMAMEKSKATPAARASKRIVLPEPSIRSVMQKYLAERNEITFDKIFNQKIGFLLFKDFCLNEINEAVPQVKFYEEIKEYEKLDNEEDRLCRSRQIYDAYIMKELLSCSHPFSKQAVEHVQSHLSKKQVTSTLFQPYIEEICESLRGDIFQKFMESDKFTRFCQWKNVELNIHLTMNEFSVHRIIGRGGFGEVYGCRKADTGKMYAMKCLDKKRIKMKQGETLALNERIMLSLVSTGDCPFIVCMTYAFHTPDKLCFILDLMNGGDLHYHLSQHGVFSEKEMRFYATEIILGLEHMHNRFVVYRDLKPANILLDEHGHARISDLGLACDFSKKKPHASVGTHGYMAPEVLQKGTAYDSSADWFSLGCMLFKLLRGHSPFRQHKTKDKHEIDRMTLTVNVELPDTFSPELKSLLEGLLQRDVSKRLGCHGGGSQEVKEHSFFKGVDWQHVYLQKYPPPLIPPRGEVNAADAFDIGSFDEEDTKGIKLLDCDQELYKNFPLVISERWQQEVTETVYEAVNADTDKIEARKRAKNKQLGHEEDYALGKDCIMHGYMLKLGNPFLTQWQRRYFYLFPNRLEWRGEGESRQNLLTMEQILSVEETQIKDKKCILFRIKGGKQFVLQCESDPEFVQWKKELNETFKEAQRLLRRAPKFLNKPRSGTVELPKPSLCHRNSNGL

The next assay addresses T2, ASK2 (Homo sapiens, UniProt O95382).
T2 construct: gene MAP3K6
T2 sequence (O95382 1-1288): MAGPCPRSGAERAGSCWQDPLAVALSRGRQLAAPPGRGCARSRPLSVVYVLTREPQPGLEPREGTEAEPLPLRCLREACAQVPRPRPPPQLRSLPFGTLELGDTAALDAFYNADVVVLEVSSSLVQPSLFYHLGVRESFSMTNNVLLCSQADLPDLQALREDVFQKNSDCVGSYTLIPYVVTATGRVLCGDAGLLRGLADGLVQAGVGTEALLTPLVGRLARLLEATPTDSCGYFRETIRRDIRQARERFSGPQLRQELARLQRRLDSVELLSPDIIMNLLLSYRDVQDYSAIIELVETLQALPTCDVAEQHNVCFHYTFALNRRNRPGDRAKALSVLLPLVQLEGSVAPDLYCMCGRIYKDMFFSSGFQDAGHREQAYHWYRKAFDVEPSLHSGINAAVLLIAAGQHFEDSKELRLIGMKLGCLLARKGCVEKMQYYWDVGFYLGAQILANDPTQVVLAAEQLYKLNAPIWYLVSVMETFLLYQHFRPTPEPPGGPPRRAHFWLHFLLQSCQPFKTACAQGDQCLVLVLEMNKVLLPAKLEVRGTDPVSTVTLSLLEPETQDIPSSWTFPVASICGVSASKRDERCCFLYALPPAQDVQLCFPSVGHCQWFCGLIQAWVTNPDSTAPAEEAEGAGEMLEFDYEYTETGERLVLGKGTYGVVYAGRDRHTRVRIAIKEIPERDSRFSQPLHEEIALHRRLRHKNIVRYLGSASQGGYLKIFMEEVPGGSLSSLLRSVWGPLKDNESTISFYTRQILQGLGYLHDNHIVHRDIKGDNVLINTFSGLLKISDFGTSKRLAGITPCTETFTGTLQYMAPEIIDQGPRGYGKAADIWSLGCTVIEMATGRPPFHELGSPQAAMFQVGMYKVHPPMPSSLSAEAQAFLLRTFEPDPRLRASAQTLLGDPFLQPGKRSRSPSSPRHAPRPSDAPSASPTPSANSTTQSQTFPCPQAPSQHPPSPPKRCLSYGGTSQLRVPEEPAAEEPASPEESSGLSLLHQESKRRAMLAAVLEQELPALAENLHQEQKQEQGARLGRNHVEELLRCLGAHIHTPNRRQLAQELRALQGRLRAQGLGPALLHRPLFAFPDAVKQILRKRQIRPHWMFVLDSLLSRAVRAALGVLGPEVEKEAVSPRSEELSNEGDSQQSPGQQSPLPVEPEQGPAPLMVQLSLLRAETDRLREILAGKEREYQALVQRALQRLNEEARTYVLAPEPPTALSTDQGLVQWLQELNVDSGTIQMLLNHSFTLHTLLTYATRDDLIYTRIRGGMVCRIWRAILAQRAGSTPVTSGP

Where [1] appears, read: read-out: Rucaparib / %Ctrl @ 10000nM, binding competition, % of control.
The mark [2] stands for this setting: read-out: Talazoparib (BMN 673) / %Ctrl @ 10000nM.
The mark [3] stands for this setting: read-out: Niraparib (MK-4827) / %Ctrl @ 10000nM.
Where [4] appears, read: read-out: Olaparib / %Ctrl @ 10000nM.

The structures appear in SMILES notation. Read-outs that look alike come from different tables or passages of the source.

Chain of CDKL1 (Q00532 whole entry): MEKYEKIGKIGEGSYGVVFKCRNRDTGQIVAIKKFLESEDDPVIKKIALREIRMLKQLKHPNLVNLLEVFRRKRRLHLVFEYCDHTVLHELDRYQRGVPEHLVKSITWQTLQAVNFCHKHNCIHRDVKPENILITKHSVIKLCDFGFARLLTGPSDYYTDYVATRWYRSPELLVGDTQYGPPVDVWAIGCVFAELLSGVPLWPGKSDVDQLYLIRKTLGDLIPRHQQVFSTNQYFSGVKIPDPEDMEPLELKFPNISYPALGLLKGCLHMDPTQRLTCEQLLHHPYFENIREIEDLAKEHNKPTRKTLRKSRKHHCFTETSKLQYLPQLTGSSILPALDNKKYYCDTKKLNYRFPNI
Chain of KIT(V559D) (P10721 whole entry V559D): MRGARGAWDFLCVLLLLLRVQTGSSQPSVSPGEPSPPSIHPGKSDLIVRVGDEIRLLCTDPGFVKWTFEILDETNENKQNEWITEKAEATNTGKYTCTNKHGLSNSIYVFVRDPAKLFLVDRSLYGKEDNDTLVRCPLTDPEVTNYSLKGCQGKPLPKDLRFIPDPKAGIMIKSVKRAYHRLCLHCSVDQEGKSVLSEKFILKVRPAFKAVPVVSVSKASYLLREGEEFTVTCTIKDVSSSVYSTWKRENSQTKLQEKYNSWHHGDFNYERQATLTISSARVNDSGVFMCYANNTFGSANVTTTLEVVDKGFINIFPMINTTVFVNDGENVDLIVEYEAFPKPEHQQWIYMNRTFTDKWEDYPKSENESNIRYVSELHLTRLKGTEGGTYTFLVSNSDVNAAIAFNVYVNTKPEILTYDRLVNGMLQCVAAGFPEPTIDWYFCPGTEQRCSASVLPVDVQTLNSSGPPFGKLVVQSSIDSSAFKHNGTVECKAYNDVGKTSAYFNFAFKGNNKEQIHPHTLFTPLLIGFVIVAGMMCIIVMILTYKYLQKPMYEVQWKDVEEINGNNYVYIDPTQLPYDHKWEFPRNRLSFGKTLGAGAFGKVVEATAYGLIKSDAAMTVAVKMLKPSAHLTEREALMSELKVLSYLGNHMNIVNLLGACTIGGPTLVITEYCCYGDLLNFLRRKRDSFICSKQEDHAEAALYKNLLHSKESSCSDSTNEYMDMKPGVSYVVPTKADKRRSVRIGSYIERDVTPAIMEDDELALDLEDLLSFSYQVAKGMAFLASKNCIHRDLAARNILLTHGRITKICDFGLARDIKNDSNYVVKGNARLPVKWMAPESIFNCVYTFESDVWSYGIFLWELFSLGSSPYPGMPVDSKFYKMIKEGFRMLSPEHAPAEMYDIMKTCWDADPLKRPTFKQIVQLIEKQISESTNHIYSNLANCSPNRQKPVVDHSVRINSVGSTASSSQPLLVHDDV
Chain of NEK4 (P51957 whole entry): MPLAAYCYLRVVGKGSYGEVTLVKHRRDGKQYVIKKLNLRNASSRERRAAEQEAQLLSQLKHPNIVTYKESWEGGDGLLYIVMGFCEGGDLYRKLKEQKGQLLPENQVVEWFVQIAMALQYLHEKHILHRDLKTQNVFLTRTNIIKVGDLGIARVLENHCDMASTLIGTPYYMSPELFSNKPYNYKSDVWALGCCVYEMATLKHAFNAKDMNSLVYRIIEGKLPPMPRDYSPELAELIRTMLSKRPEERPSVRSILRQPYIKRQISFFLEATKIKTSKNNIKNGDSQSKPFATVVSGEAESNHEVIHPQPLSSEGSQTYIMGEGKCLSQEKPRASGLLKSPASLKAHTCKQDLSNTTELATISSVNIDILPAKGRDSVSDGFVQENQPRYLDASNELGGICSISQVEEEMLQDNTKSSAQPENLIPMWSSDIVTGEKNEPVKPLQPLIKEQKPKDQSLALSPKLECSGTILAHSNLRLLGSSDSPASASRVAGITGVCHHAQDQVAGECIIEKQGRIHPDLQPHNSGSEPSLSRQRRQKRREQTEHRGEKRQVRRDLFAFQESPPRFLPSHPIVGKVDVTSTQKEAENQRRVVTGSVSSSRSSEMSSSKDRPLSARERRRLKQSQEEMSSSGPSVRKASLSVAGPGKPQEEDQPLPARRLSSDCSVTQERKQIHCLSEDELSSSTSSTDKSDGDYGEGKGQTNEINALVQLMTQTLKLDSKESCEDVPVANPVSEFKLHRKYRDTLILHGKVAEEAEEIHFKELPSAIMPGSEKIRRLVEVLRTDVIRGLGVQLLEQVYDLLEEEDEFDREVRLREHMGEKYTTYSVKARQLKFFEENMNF

Consider `CNCc1ccc(-c2[nH]c3cc(F)cc4c3c2CCNC4=O)cc1` [Rucaparib], for which the percent of control binding at 10 µM came out at 90% on GRK3 (setting [1]); 77% at ASK2 (setting [1]); 92% on KIT(V559D) (setting [1]); 84% at CDKL1 (setting [1]); 82% at NEK4 (setting [1]).

As to `Cn1ncnc1[C@H]1c2n[nH]c(=O)c3cc(F)cc(c23)N[C@@H]1c1ccc(F)cc1` [Talazoparib], the percent of control binding at 10 µM on GRK3 (setting [2]) turned out to be 81%; at ASK2 (setting [2]) it was 85%; on KIT(V559D) (setting [2]) it was 100%; at CDKL1 (setting [2]) it was 49%; on NEK4 (setting [2]), 100%.

Turning to `NC(=O)c1cccc2cn(-c3ccc([C@@H]4CCCNC4)cc3)nc12` [Niraparib], the percent of control binding at 10 µM at GRK3 (setting [3]) is 95%; on ASK2 (setting [3]), 98%; at KIT(V559D) (setting [3]), 90%; at CDKL1 (setting [3]), 94%; at NEK4 (setting [3]), 82%.

On to `O=C(c1cc(Cc2n[nH]c(=O)c3ccccc23)ccc1F)N1CCN(C(=O)C2CC2)CC1` [Olaparib], for which the percent of control binding at 10 µM at GRK3 (setting [4]) amounted to 82%; at ASK2 (setting [4]), 80%; on KIT(V559D) (setting [4]), 100%; at CDKL1 (setting [4]), 99%; at NEK4 (setting [4]), 80%.

(Values after PMC7026418, “The kinase polypharmacology landscape of clinical PARP inhibitors” (Scientific Reports, 2020).)
